Literature values, collected in patent US11925179B2, “Glyphosate formulations containing amidoalkylamine surfactants” (Monsanto Technology LLC, priority 2008, dated 2024).

Settings: glyphosate in its acid form, 25° C.

In the case of O=C(O)CNCP(=O)(O)O [glyphosate, N-phosphonomethylglycine], the solubility in water is given as 1.16 % by weight.
